For one compound, IC50 results are on record in ChEMBL document CHEMBL1158393, “Synthesis, characterization and in vitro antiproliferative activities of new 13-cis-retinoyl ferrocene derivatives” (Eur J Med Chem, 2009).

Holding throughout (assay type): functional, cell-based
The test system of one assay is A549. In words: Cytotoxicity against human A549 cells after 24 hrs by MTT assay. Particulars: A549, 24 h.
A short description of assay [1]: Cytotoxicity against human Bel7404 cells after 24 hrs by MTT assay. Particulars: BEL-7404, 24 h. In general terms: Tetrazolium assays rely on reduction of a dye to a coloured formazan, in cell work by metabolically active cells.
Assay [2] in a line: Cytotoxicity against human Tca cells after 24 hrs by MTT assay.

For the compound `CC1=C(/C=C/C(C)=C/C=C/C(C)=C\C(=O)O)C(C)(C)CCC1` [ISOTRETINOIN], the figures for the IC50 (in the assay with A549; in assay [1]; in assay [2]) were 35.8 µM, 42.6 µM and 39.7 µM, respectively.

A word on the IC50: it is the concentration that gives 50% inhibition. Low readings indicate higher potency, high ones lower potency.
